Test results taken from patent publication US9676786B2, “Pharmacologically active compounds” (The University of Liverpool, priority 2013, dated 2017).
Like-named read-outs stand apart in the source and are kept apart here.

Assays:
[1] = Cerebrospinal fluid (CSF) levels after oral dosing; assay type: in vivo; settings: p.o. dose 3 mg/kg, after 2 hr, fasted male SD rat
neuropathic rats [2] = experiment: Comparison of LT-01-25 and LT-01-89: ipsilateral withdrawal latencies to cold (10° C.) stimulus in neuropathic rats; assay type: in vivo, rat; settings: 10 mg/kg p.o., male SD rats
neuropathic rats [3] = experiment: Comparison of LT-01-25 and LT-01-89: ipsilateral paw withdrawal thresholds to mechanical pressure in neuropathic rats; assay type: in vivo, rat; settings: 10 mg/kg p.o., male SD rats
Method: Male, SD rats. n=6/group. Vehicle: 10% DMSO/10% Solutol HS15/80% saline.
• 1) In rats a peripheral neuropathy was induced by partial ligation of the sciatic nerve in one hind limb. • 2) Two weeks (12-15 days) after induction of peripheral neuropathy stable mechanical (tactile) allodynia was induced in the hind paw of the affected limb. • 3) Five treatment groups of male SD rats (n=8) were used: vehicle control (drug formulation), 3 drug doses, and a positive control, lamotrigine (30 mg/kg). Animals were randomized between groups and the experiment was carried out using blinded conditions. The study was split with n=4/group in each experiment. • 4) Baseline behavioural measurements were obtained prior to surgery and at intervals post-surgery. Predose behavioural measurements were obtained by measuring paw withdrawal thresholds 12-15 days following nerve ligation. • 5) Compound efficacy was determined by measuring paw withdrawal thresholds at specified intervals following vehicle/compound treatment. Methods Animals
Animals were maintained in a controlled lighting environment and given food and water ad libitum. Male Sprague Dawley rats (120-140 g at time of surgery) were used.
Rats were fasted overnight with free access to water and fed 4 hours post-dose.
Tests compounds as well as Lamotrigine (30 mg/kg, volume: 10 ml/kg)) were prepared in the designated formulation (10% DMSO, Solutol HS 15/80% and 0.9% saline for p.o. administration) and administered via the chosen route.
Rats were anaesthetised (isoflurane/O2 inhalation), the left sciatic nerve was exposed at mid-thigh level through a small incision and ⅓ to ½ of the nerve thickness tightly ligated within a 7.0 silk suture. The wound was closed with skin clips. Animals were allowed to recover and compounds administered 12-15 days following surgery.
Compound/vehicle were administered at specified doses. Following treatment, further readings were taken; 1, 3, 6 and 24 hour after p.o. administration.

[4] = Pharmacokinetic evaluation, oral dosing in rats; assay type: in vivo, rat; settings: 10 mg/kg oral; for AUC(0-inf) / half-life / Cmax / Tmax: rat, plasma, po, 10 mg/kg; for Cmax: read-out: Cmax; for Tmax: read-out: Tmax
Method: • Dose—10 mg/kg (5 mL/kg) • Route—ORAL • Vehicles—10% DMSO/10% Solutol and SSV • Time—24 h • Procedure Number—6 Vehicles • 10% DMSO/10% Solutol/80% Saline • 1) Compound was weighed out into a clean vial. • 2) DMSO was added into the vial; the vial was vortexed and sonicated it for 15 min. • 3) Solutol HS 15 was heated at 50° C. until a liquid formed, and then was added into the vial. The vial was vortexed for 1-2 min. • 4) 0.9% Saline solution was added to the vial. The vial was vortexed and then sonicated for 10 min. Standard Suspension Vehicle (SSV) • 1) A solution of SSV was made using 0.5% Sodium carboxymethylcellulose, 0.5% Benzyl alcohol, 0.4% Tween80 and 98.6% saline (0.9%) • 2) Compound was weighed out into a clean vial • 3) SSV solution was added into the vial; the vial was vortexed and sonicated it for 15 min. Fasted Rats
Fasted rats were fasted overnight and given access to food immediately after dosing.
• 1) Rats were manually restrained and given a 10 mg/kg oral dose of compound at 5 mL/kg. • 2) At designated time points (0.25, 0.5, 1, 3, 5, 7 and 24 hours) the rats were anaesthetised using isoflurane. • 3) Approximately 300 μL of blood was taken from the tail vein using a 1.5 inch needle treated with heparin and collected into 1.5 mL eppendorf tubes. • 4) After sampling, pressure was applied to the puncture until bleeding ceased. The animals were returned to their cages and given free access to food and water. • 5) Blood samples were stored on ice and then centrifuged at 13,000 rpm for 15 min to separate the plasma. • 6) 150 μL of the plasma was treated with 300 μL of ACN:MeOH (1:1) solution containing the internal standard. The samples were then centrifuged for a further 15 min at 13,000 rpm. • 7) 200 μL of the supernatant was collected and placed in LC-MS vials for analysis. All samples were stored at −80° C. Results

[5] = Human microsomal stability; assay type: in vitro ADME
Method: The metabolic stability assay was performed by incubating each test compound (1 μM) with human liver microsomes in duplicate at 37° C. and 0.4 mg/mL protein concentration. The metabolic reaction was initiated by the addition of a NADPH-regenerating system (i.e. NADPH is the cofactor required for CYP450-mediated metabolism) and quenched at various time points over the 60 minute incubation period by the addition of acetonitrile. Control samples (containing no NADPH) were included (and quenched at 2, 30 and 60 minutes) to monitor for potential degradation in the absence of cofactor. Samples were analysed by UPLC-MS (Waters/Micromass Xevo G2 QTOF) under positive electrospray ionisation and MS spectral data acquired in a mass range of 80 to 1200 Daltons.
Test compound concentration versus time data were fitted to an exponential decay function to determine the first-order rate constant for substrate depletion. In cases where clear deviation from first-order kinetics was evident, only the initial linear portion of the profile was utilised to determine the degradation rate constant (k). Each substrate depletion rate constant was then used to calculate: [1] a degradation half-life, [2] an in vitro intrinsic clearance value (CLint, in vitro); [3] a predicted in vivo hepatic intrinsic clearance value (CLint); [4] a predicted in vivo blood clearance value (CLblood); and [5] a predicted in vivo hepatic extraction ratio (EH).
• 1) The substrate concentration employed is well below the apparent KM for substrate turnover; and, • 2) There is no significant product inhibition, nor is there any mechanism-based inactivation of enzyme. The use of hepatic microsomes in the prediction of the in vivo hepatic extraction ratio has two further inherent assumptions (Obach, 1999) which: • 1) NADPH-dependent oxidative metabolism predominates over other metabolic routes (i.e. direct conjugative metabolism, reduction, hydrolysis, etc.); and, • 2) Rates of metabolism and enzyme activities in vitro are truly reflective of those that exist in vivo. Data should be considered within these terms of reference.

[6] = 10% DMSO/10% Solutol/80% Saline, fasted rats
[7] = 10% DMSO/10% Solutol/80% Saline, non-fasted rats

With `CC(C)c1cc(C(=O)N2CCOCC2)cc(C(C)C)c1O` [LT-01-25, (4-(hydroxy)-3,5-diisopropylphenyl)(morpholino)methanone] the CSF levels [1] was 95 ng/mL, the “CSF levels as multiple of EC50” value [1] was “(900 × EC50)” and the “Cold (10° C.) Stimulus Percentage reversal of predose Hyperalgesia” value (neuropathic rats [2]; 1 hr) was 1 hr - - - 85%. For the same compound, the “Cold (10° C.) Stimulus Percentage reversal of predose Hyperalgesia” value (neuropathic rats [2]; 3 hr) was 3 hr - - - 35%, the “Cold (10° C.) Stimulus Percentage reversal of predose Hyperalgesia” value (neuropathic rats [2]; 6 hr) was 6 hr - - - 35% and the “Mechanical pressure Percentage reversal of predose hyperalgesia” value (“Mechanical pressure Percentage reversal” for short) (neuropathic rats [3]; 1 hr) was 1 hr - - - 80%. The “Mechanical pressure Percentage reversal” value (neuropathic rats [3]; 3 hr) was 3 hr - - - 90%, the “Mechanical pressure Percentage reversal” value (neuropathic rats [3]; 6 hr) was 6 hr - - - 40% and the “CL (area)/kg” value [4, 6] was 1.1719 L/h/kg. The “Vd (area)/kg” value [4, 6] was 2.3006 L/kg, the “CL (area)/kg” value [4, 7] was 0.5054 L/h/kg and the “Vd (area)/kg” value [4, 7] was 0.9737 L/kg. The “CL (area)/kg” value ([4]; SSV, fasted rats) was 0.5516 L/h/kg, the “Vd (area)/kg” value ([4]; SSV, fasted rats) was 1.1426 L/kg and the “CL (area)/kg” value ([4]; SSV, non-fasted rats) was 0.5197 L/h/kg. For the same compound, the “Half Life” value ([4]; SSV, non-fasted rats) was 3.6 h, the “Vd (area)/kg” value ([4]; SSV, non-fasted rats) was 2.7109 L/kg and the AUC(0-inf) [4, 6] was 8.53 µg·h/mL. The half-life [4, 6] was 1.4 h, the Cmax [4, 6] was 2.42 µg/mL and the Tmax [4, 6] was 0.3 h. The AUC(0-inf) [4, 7] was 20.4 µg·h/mL, the half-life [4, 7] was 1.4 h and the Cmax [4, 7] was 1.71 µg/mL. For the same compound, the Tmax [4, 7] was 4 h, the AUC(0-inf) ([4]; SSV, fasted rats) was 18.1 µg·h/mL and the half-life ([4]; SSV, fasted rats) was 1.4 h. For the same compound, the Cmax ([4]; SSV, fasted rats) was 2.59 µg/mL, the Tmax ([4]; SSV, fasted rats) was 1 h and the AUC(0-inf) ([4]; SSV, non-fasted rats) was 19 µg·h/mL. It also gave a half-life ([4]; SSV, non-fasted rats) of 3.62 h, a Cmax ([4]; SSV, non-fasted rats) of 2.12 µg/mL and a Tmax ([4]; SSV, non-fasted rats) of 0.25 h. The half-life at 1 μM ([5]; human liver microsomes, read-out: t1/2 (values marked *)) was 8.25 h and the “Cl (values marked *)” value ([5]; human microsomes, 1 μM) was 2.7 mL/min/kg (Cl) *.
